The source of these data is US9216991B2 (Ares Trading S.A., priority 2012, dated 2015).

The IC50 is the point on the concentration scale where inhibition reaches its midpoint. A word on the melting point: it is the temperature of the solid-liquid transition.

Where a name gives a salt, the structure may show the parent alone. Bounds are passed on as bounds.

In one data set the target is T1, IRAK4 (Homo sapiens, UniProt Q9NWZ3).
T1 construct: His (N); TEV cleavage site (N)
T1 sequence (Q9NWZ3 1-460): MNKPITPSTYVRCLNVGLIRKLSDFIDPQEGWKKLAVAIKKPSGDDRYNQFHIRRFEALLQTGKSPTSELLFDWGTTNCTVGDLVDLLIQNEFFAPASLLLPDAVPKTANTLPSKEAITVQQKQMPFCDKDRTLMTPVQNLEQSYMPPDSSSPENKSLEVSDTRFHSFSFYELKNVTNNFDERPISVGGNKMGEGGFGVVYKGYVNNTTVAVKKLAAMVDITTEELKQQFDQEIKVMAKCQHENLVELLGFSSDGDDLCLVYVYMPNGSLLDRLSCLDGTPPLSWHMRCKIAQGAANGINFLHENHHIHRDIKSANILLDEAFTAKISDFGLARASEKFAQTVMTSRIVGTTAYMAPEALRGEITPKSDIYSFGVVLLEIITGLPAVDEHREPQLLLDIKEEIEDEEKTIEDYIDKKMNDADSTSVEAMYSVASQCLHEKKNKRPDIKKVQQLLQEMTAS
Nature of the data set: IRAK4 Enzymatic Assay. Type of data set: biochemical. The conditions noted are these: His-TEV-IRAK4 20 ng/well, ATP 2 μM, STK1-biotin peptide 300 nM, 3 hours at 30° C., FlashPlate radioactivity. The gist of the method: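 Recombinant His-TEV-tagged IRAK4 (20 ng/well) phosphorylates biotinylated STK1 peptide (300 nM) with 2 μM ATP plus [^33P]ATP, 3 h at 30 °C in pH 7.0 HEPES buffer with MgCl2 and MnCl2; compounds tested 20 μM to 1 nM. Reaction stopped with EDTA; incorporated radioactivity counted on streptavidin FlashPlates.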

`Cn1cc(-c2cccc(-c3ncc(-c4cnn(C5CCCC(S(C)(=N)=O)C5)c4)cn3)c2)cn1` (centres unmarked) [Example 288, imino(methyl)(3-(4-(2-(3-(1-methyl-1H-pyrazol-4-yl)phenyl)pyrimidin-5-yl)-1H-pyrazol-1-yl)cyclohexyl)-λ6-sulfanone] yielded a melting point of 172 to 179.2 °C. Besides, the IC50 at IRAK4 was under 0.1 µM.
The corresponding values for `Cn1cc(-c2cccc(-c3ncc(-c4cnn([C@H]5CC[C@H](OCCO)CC5)c4)cn3)c2)cn1` [Example 277, Trans-2-[4-(-4-{2-[3-(1-Methyl-1H-pyrazol-4-yl)-phenyl]-pyrimidin-5-yl}-pyrazol-1-yl)-cyclohexyloxy]-ethanol] are 218.7 to 223.3 °C and under 0.1 µM.
The like results for `Cn1cc(-c2cccc(-c3ncc(-c4cnn([C@H]5CCCNC5)c4)cn3)c2)cn1` [Example 283, 2-[3-(1-Methyl-1H-pyrazol-4-yl)-phenyl]-5-((S)-1-piperidin-3-yl-1H-pyrazol-4-yl)-pyrimidine] were, in that order, 175.8 to 180.6 °C and under 0.1 µM.
In turn, `Cn1cc(-c2cccc(-c3ncc(-c4cnn(CC(=O)N5CCC(O)C5)c4)cn3)c2)cn1` (centres unmarked) [Example 74, 1-(3-Hydroxy-pyrrolidin-1-yl)-2-(4-{2-[3-(1-methyl-1H-pyrazol-4-yl)-phenyl]-pyrimidin-5-yl}-pyrazol-1-yl)-ethanone] gave a melting point of 237 to 238 °C. Also, on IRAK4, the IC50 was in the range of 0.1 to 1 µM.
In turn, `Cn1cc(-c2cccc(-c3ncc(-c4cnn(CC(=O)N5CC(O)C5)c4)cn3)c2)cn1` [Example 73, 1-(3-Hydroxy-azetidin-1-yl)-2-(4-{2-[3-(1-methyl-1H-pyrazol-4-yl)-phenyl]-pyrimidin-5-yl}-pyrazol-1-yl)-ethanone] came in with a melting point of 177 to 181 °C. Moreover, the IC50 at IRAK4 is 0.1 to 1 µM.
`Cn1cc(-c2cccc(-c3ncc(-c4cnn(CCO)c4)cn3)c2)cn1` [Example 23, 2-(4-{2-[3-(1-Methyl-1H-pyrazol-4-yl)-phenyl]-pyrimidin-5-yl}-pyrazol-1-yl)-ethanol] had a melting point of 234 to 236 °C. The IC50 on IRAK4 is 0.1 to 1 µM.
On to `CN1CC2CC1CN2C(=O)[C@H]1CC[C@H](n2cc(-c3cnc(-c4cccc(-c5cnn(C)c5)c4)nc3)cn2)CC1` (stereo partly drawn) (as salt: hydrobromid) [Example 278, (5-Methyl-2,5-diaza-bicyclo[2.2.1]hept-2-yl)-trans-[4-(-4-{2-[3-(1-methyl-1H-pyrazol-4-yl)-phenyl]-pyrimidin-5-yl}-pyrazol-1-yl)-cyclohexyl]-methanone hydrobromide], for which the melting point is 50.3 to 55 °C.
`Cn1cc(-c2cccc(-c3ncc(-c4cnn([C@H]5CC[C@]6(CO)COC[C@]6(O)C5)c4)cn3)c2)cn1` (single isomer, unassigned) [Example 280] had a melting point of 190.1 to 201.7 °C. Besides, the IC50 on IRAK4 was under 0.1 µM.
The corresponding values for `Cn1cc(-c2cnc(-c3cccc(-c4cnn(C)c4)c3)nc2)cn1` [Example 32, 5-(1-Methyl-1H-pyrazol-4-yl)-2-[3-(1-methyl-1H-pyrazol-4-yl)-phenyl]-pyrimidine] are 199 to 200 °C and 0.1 to 1 µM.
The corresponding values for `Cn1cc(-c2cccc(-c3ncc(-c4cnn([C@@H]5CC[C@@]6(CO)COC[C@@]6(O)C5)c4)cn3)c2)cn1` (single isomer, unassigned) [Example 281] are 191.4 to 199.7 °C and 0.1 to 1 µM.
The corresponding values for `Cn1cc(-c2cccc(-c3ncc(-c4cnn(CC(=O)N5CCCC(O)C5)c4)cn3)c2)cn1` (centres unmarked) [Example 52, 1-(3-Hydroxy-piperidin-1-I)-2-(4-{2-[3-(1-methyl-1H-pyrazol-4-yl)-phenyl]-pyrimidin-5-yl}-pyrazol-1-yl)-ethanone] are 198 to 200 °C and 0.1 to 1 µM.
Take `Cn1cc(-c2cccc(-c3ncc(-c4cnn([C@@H]5CCC[C@@H](O)C5)c4)cn3)c2)cn1` (relative stereo) [Example 290, Trans-3-(4-{2-[3-(1-Methyl-1H-pyrazol-4-yl)-phenyl]-pyrimidin-5-yl}-pyrazol-1-yl)-cyclohexanol]: the melting point is 207.5 to 212 °C. Further, on IRAK4, the half-inhibitory concentration (IC50) was 0.1 to 1 µM.
On to `Cn1cc(-c2cccc(-c3ncc(-c4cnn(C5CCC(=O)CC5)c4)cn3)c2)cn1` [Example 189, 4-(4-{2-[3-(1-Methyl-1H-pyrazol-4-yl)-phenyl]-pyrimidin-5-yl}-pyrazol-1-yl)-cyclohexanone], for which the IC50 on IRAK4 fell in the range of 0.1 to 1 µM.
Still for that read-out and setting: under `CN(C)CCn1cc(-c2cnc(-c3cccc(-c4cnn(C)c4)c3)nc2)cn1` [Example 11, Dimethyl-[2-(4-{2-[3-(1-methyl-1H-pyrazol-4-yl)-phenyl]-pyrimidin-5-yl}-pyrazol-1-yl)-ethyl]-amine] stands 1 to 5 µM.
Same read-out and setting: in the case of `Cn1cc(-c2cccc(-c3ncc(-c4cnn(C5C[C@H]6CC[C@@H](C5)N6)c4)cn3)c2)cn1` (stereo partly drawn) [Example 110, (1R,5S)-3-(4-{2-[3-(1-Methyl-1H-pyrazol-4-yl)-phenyl]-pyrimidin-5-yl}-pyrazol-1-yl)-8-aza-bicyclo[3.2.1]octane] it was 0.1 to 1 µM; in that of `Cn1cc(-c2cccc(-c3ncc(-c4cnn(CC5CNCCO5)c4)cn3)c2)cn1` (centres unmarked) [Example 41, 2-(4-{2-[3-(1-Methyl-1H-pyrazol-4-yl)-phenyl]-pyrimidin-5-yl}-pyrazol-1-ylmethyl)-morpholine hydrochloride], 0.1 to 1 µM; in that of `Cn1cc(-c2cccc(-c3ncc(-c4cnn([C@H]5CC[C@H](OCC6CC6)CC5)c4)cn3)c2)cn1` [Example 220, trans-5-[1-(4-Cyclopropylmethoxy-cyclohexyl)-1H-pyrazol-4-yl]-2-[3-(1-methyl-1H-pyrazol-4-yl)-phenyl]-pyrimidine], under 0.1 µM.
With `Cn1cc(-c2cccc(-c3ncc(-c4cnn(C5CCN(C(=O)CC(F)(F)F)CC5)c4)cn3)c2)cn1` [Example 114, 3,3,3-Trifluoro-1-[4-(4-{2-[3-(1-methyl-1H-pyrazol-4-yl)-phenyl]-pyrimidin-5-yl}-pyrazol-1-yl)-piperidin-1-yl]-propan-1-one], the IC50 on IRAK4 lay in the range of 0.1 to 1 µM.
Regarding `CC(=O)N1CCCC(n2cc(-c3cnc(-c4cccc(-c5cnn(C)c5)c4)nc3)cn2)C1` (stereo in doubt) [Example 274, 1-[3-((R)-4-{2-[3-(1-Methyl-1H-pyrazol-4-yl)-phenyl]-pyrimidin-5-yl}-pyrazol-1-yl)-piperidin-1-yl]-ethanone], the concentration for half-maximal inhibition (IC50) at IRAK4 is under 0.1 µM.
Regarding `Cn1cc(-c2cccc(-c3ncc(-c4cnn(C5CCN(C(=O)C6CCOC6)CC5)c4)cn3)c2)cn1` (centres unmarked) [Example 104, [4-(4-{2-[3-(1-Methyl-1H-pyrazol-4-yl)-phenyl]-pyrimidin-5-yl}-pyrazol-1-yl)-piperidin-1-yl]-(tetrahydro-furan-3-yl)-methanone], at IRAK4, the IC50 was 0.1 to 1 µM.
As for `CC(=O)N1CCCC(n2cc(-c3cnc(-c4cccc(-c5cnn(C)c5)c4)nc3)cn2)CC1` (centres unmarked) [Example 223, 1-[4-(4-{2-[3-(1-Methyl-1H-pyrazol-4-yl)-phenyl]-pyrimidin-5-yl}-pyrazol-1-yl)-azepan-1-yl]-ethanone], the IC50 on IRAK4 was in the range of 0.1 to 1 µM.
As to `Cn1cc(-c2cccc(-c3ncc(-c4cnn(CC(=O)N5CCOCC5)c4)cn3)c2)cn1` [Example 36, 2-(4-{2-[3-(1-Methyl-1H-pyrazol-4-yl)-phenyl]-pyrimidin-5-yl}-pyrazol-1-yl)-1-morpholin-4-yl-ethanone], on IRAK4, the IC50 was 0.1 to 1 µM.
Still for that read-out and setting: under `CC(C(=O)N(C)C)n1cc(-c2cnc(-c3cccc(-c4cnn(C)c4)c3)nc2)cn1` (centres unmarked) [Example 99, N,N-Dimethyl-2-(4-{2-[3-(1-methyl-1H-pyrazol-4-yl)-phenyl]-pyrimidin-5-yl}-pyrazol-1-yl)-propionamide] stands 1 to 5 µM.
On the same count and under the same terms, under `CN(C(=O)Cn1cc(-c2cnc(-c3cccc(-c4cnn(C)c4)c3)nc2)cn1)C1COC1` [Example 145, N-Methyl-2-(4-{2-[3-(1-methyl-1H-pyrazol-4-yl)-phenyl]-pyrimidin-5-yl}-pyrazol-1-yl)-N-oxetan-3-yl-acetamide] stands 0.1 to 1 µM.
For the molecule `CC(C)N(C)C(=O)[C@H]1CC[C@H](n2cc(-c3cnc(-c4cccc(-c5cnn(C)c5)c4)nc3)cn2)CC1` [Example 200, Trans-4-(4-{2-[3-(1-Methyl-1H-pyrazol-4-yl)-phenyl]-pyrimidin-5-yl}-pyrazol-1-yl)-cyclohexanecarboxylic acid isopropyl-methyl-amide], the concentration for half-maximal inhibition (IC50) on IRAK4 is under 0.1 µM.
As for `Cc1cc(-c2cccc(-c3ncc(-c4cnn(C5CCOCC5)c4)cn3)c2)ccn1` [Example 139, 2-[3-(2-Methyl-pyridin-4-yl)-phenyl]-5-[1-(tetrahydro-pyran-4-yl)-1H-pyrazol-4-yl]-pyrimidine], on IRAK4, the IC50 was 0.1 to 1 µM.
In the case of `CC(=O)Cn1cc(-c2cnc(-c3cccc(-c4cnn(C)c4)c3)nc2)cn1` [Example 44, 1-(4-{2-[3-(1-Methyl-1H-pyrazol-4-yl)-phenyl]-pyrimidin-5-yl}-pyrazol-1-yl)-propan-2-one], the IC50 at IRAK4 is 0.1 to 1 µM.
